Laboratory results as given in patent US10946036B2, “Use of myostatin inhibitors and combination therapies” (Scholar Rock, Inc., priority 2016, dated 2021).
pKd: −log10 of the molar value. Entries after “also recorded” stand apart in the source; their conditions may differ. Like-named read-outs stand apart in the source and are kept apart here. One block for each molecule: values may come before it.

Tests used:
Δ7 mice = details: 0.1 mg/kg/day from birth; cited from earlier work
murine proMyostatin = assay: Binding to murine proMyostatin; design: species or system mouse
GDF11 = assay: Binding specificity: GDF11; details: any form of GDF11
Activin A = assay: Binding specificity: Activin A; details: any form
mature BMP9 = target: T1, mature BMP9 (Homo sapiens, UniProt Q9UK05); assay: Binding specificity: mature BMP9
T1 sequence (Q9UK05 320-429): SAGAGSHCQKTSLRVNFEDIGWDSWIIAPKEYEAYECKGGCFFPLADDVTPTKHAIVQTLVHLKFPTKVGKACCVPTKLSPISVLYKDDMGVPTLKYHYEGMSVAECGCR

mature BMP10 = target: T2, mature BMP10 (Homo sapiens, UniProt O95393); assay: Binding specificity: mature BMP10
T2 sequence (O95393 317-424): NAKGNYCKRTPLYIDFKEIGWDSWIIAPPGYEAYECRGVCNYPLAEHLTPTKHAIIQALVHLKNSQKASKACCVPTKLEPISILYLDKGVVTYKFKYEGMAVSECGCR

mature TGFβ1 = mature TGFβ1 (Homo sapiens, UniProt P01137); assay: Binding specificity: mature TGFβ1
Sequence of mature TGFβ1 (P01137 279-390 limits assumed): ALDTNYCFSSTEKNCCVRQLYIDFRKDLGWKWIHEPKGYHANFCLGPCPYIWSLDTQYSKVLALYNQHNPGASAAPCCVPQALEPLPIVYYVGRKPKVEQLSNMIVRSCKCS

mature GDF-8 = mature GDF-8 (Homo sapiens, UniProt O14793); assay: Binding specificity: mature GDF-8
Protocol: In some embodiments, suitable dosage of SRK-015 for administration in human patients for the treatment of SMA ranges between 1 and 30 mg/kg, e.g., 1-5 mg/kg, 3-5 mg/kg, 3-10 mg/kg, 5-10 mg/kg, 5-15 mg/kg, 5-20 mg/kg, 10-20 mg/kg, etc. In some embodiments, the patient is administered SRK-015 once a week, once every two weeks, once every three weeks, once a month, once every six weeks, etc.

proMyostatin [1] = target: T3, proMyostatin (Homo sapiens, UniProt O14793); assay: proMyostatin activation assay, Smad2/3 luciferase reporter cell line; type: cell-based; details: proMyostatin incubated with furin and mTTL-2 proteases
T3 construct: made in house; host or cells: mammalian expression system
Source text: (§1) Antibody SRK-015P (“P” for parental) was optimized to generate SRK-015, a fully human monoclonal antibody. SRK-015 differs from its parental clone by five residues in the variable domain outside the complementarity determining region. […] Both SRK-015 and SRK-015P had similar functional activity towards human and mouse proMyostatin in the reporter assay such that EC50 values for the two antibodies in proMyostatin activation assay using human and mouse proMyostatin, are similar. […] The ability of SRK-015 to bind the myostatin prodomain and to inhibit tolloid cleavage has been shown. Purified recombinant latent myostatin was incubated with TLL-2 tolloid protease in the presence of increasing concentrations of SRK-015. Samples were separated by reducing SDS-PAGE and probed by Western blot with an antibody that recognizes the myostatin prodomain.

proMyostatin [2] = target: T3, proMyostatin; assay: proMyostatin activation reporter assay, human proMyostatin; type: cell-based
Source text: as §1

mouse proMyostatin = target: T4, mouse proMyostatin (Mus musculus, UniProt O08689); assay: proMyostatin activation reporter assay, mouse proMyostatin; type: cell-based
T4 construct: made in house; host or cells: mammalian expression system
Source text: as §1

proGDF11 = proGDF11 (Homo sapiens, UniProt O95390); assay: Protease activity reporter assay using proGDF11 as substrate; type: cell-based
Sequence of proGDF11 (O95390 299-407): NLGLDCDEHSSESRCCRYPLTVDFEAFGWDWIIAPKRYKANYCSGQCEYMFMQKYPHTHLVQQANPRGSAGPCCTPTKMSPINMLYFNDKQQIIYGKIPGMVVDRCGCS

mature myostatin = mature myostatin (Homo sapiens, UniProt O14793); assay: Mature myostatin signaling in Smad2/3 reporter assay; type: cell-based
latent myostatin [3] = target: T5, latent myostatin (Homo sapiens, UniProt O14793); assay: TLL-2 tolloid cleavage of latent myostatin, Western blot; type: biochemical; details: increasing antibody concentrations
T5 construct: Following cleavage, the growth factor and prodomain remain associated, forming a latent complex (latent myostatin)
Source text: as §1

healthy male mice = assay: Muscle mass in healthy mice after single dose; type: in vivo, mouse; details: single 20 mg/kg dose, after 15 days
Source text: (§2) FIG. 2A and FIG. 2B provide a summary of dexamethasone-induced atrophy in mice: FIG. 2A illustrates the experimental model of single-dose SRK-015 treatment in healthy and atrophy-induced mice; FIG. 2B provides changes in gastrocnemius muscle weights measured at the indicated time points.
(§3) SRK-015 increased muscle mass in healthy animals and reduced muscle loss in a dexamethasone-induced model of atrophy. […] SRK-015 was also effective in preventing muscle loss upon dexamethasone treatment.

[4] = system: dexamethasone treated mice; assay: Dexamethasone-induced muscle atrophy in mice; type: in vivo, mouse
Source text: as §2, §3

[5] = Pharmacokinetics in scid mice, anti-human IgG ELISA; type: in vivo, mouse; details: single 5 mg/kg IV dose, serum
Protocol: (§4) Male scid mice were administered a single 5 mg/kg IV dose of SRK-015. Separate cohorts of mice were sacrificed 4 hours, 2, 8, 15, 22, 29, and 56 days post dose, and serum and TA muscles collected for PK and target engagement assays. N=4 or 8 per group. SRK-015 levels were determined from serum samples taken at the indicated times after dosing. Analysis was performed using an anti-human IgG ELISA. The half-life of SRK-015 in scid mice at 5 mg/kg was ˜20.3 days.

scid mice = assay: Lean mass by qNMR in scid mice; type: in vivo, mouse; details: single 5 mg/kg dose
Protocol: as §4
(§5) Lean mass was measured with qNMR at the indicated timepoints after dosing. […] Target engagement was assessed by analyzing levels of latent myostatin in serum and muscle using western blot. Binding to SRK-015 results in accumulation of latent myostatin as the bound target assumes the half-life of the antibody and accumulates in circulation and in the target tissues. […] Samples from three mice from each cohort were analyzed.

latent myostatin [6] = target: T6, latent myostatin (Mus musculus, UniProt O08689); assay: Target engagement in serum and muscle of scid mice, western blot; type: in vivo; details: single 5 mg/kg dose
T6 construct: from tissue; host or cells: mouse serum and tibialis anterior muscle
Protocol: as §4, §5

[7] = Pharmacokinetics in cynomolgus monkeys, ELISA; type: in vivo; details: for T1/2: post-dosing period
Protocol: (§6) SRK-015 PK properties were also determined in cynomolgus monkeys. Two- to three-year old male animals (average age 34 months) were administered weekly doses of 3 mg/kg or 30 mg/kg SRK-015 for 8 weeks. Following the last dose, animals were followed for an additional five weeks in the absence of drug administration. Samples from this post-dosing period were used to calculate PK parameters. […] Antibody levels were assessed by ELISA.

cynomolgus monkeys = assay: Muscle weights in cynomolgus monkeys; type: in vivo
Protocol: as §6
(§7) At study termination animals were sacrificed five weeks after the last dose as described in above and muscle weights were determined. Gastrocnemius and Biceps brachii muscles (FIG. 10A and FIG. 10B, respectively) show increased mass following SRK-015 treatment. Gastrocnemius weights increased 21% in the 3 mg/kg groups, and 23% in the 30 mg/kg groups relative to vehicle control. * indicates statistically significant difference from vehicle by one-way ANOVA; P<0.007. Biceps brachii weights increased 18% in the 3 mg/kg groups, and 25% in the 30 mg/kg group relative to vehicle control. * indicates statistically significant difference from vehicle by one-way ANOVA; P<0.02. […] Serum samples were collected at the indicated study day and analyzed by semi-quantitative western blot analysis. Accumulation of latent myostatin, indicative of SRK-015 binding, is evident by day 8. Target continues to accumulate as additional doses are administered. Latent myostatin levels were quantified as described in Example 7 above. The effects of SRK-015 on muscle weight indicate that even at lower end of dosage (e.g., 3 mg/kg/week) SRK-015 is at or near the level of target engagement necessary for maximal efficacy.

latent myostatin [8] = target: T7, latent myostatin (Macaca fascicularis, UniProt Q95J86); assay: Target engagement in cynomolgus serum, semi-quantitative western blot; type: in vivo, cynomolgus monkeys; details: 3 mg/kg or 30 mg/kg weekly
T7 construct: from tissue; host or cells: cynomolgus monkey serum
Protocol: as §7

[9] = system: preclinical models of SMA (mice); details: cited from earlier work; for blood brain barrier (BBB) crossing: mouse, in vivo; for SMN protein levels compared to vehicle: oral dosing, brain and muscle
[10] = system: infantile-onset SMA (type I) patients; details: cited from earlier work
Type II SMA patients = details: cited from earlier work; for HFMSE score increase relative to placebo group: mean
SMA patients = details: human, in vivo; cited from earlier work
[11] = in vivo; cited from earlier work
[12] = 3 mg/kg weekly x8, five weeks after last dose
[13] = 30 mg/kg weekly x8, five weeks after last dose

Molecule: Cc1cn2cc(-c3cc4ccc(N5CCN(C)CC5)cc4c(=O)o3)nc2c(C)n1 [SMN-C1]
- treated mice surviving to post-natal day (PND) 52 (Δ7 mice): 70%

- pKd (murine proMyostatin): 8.08
- binding to Activin A (Activin A): no detectable binding
- binding to mature BMP9 (mature BMP9): no detectable binding
- binding to mature BMP10 (mature BMP10): no detectable binding
- binding to mature TGFβ1 (mature TGFβ1): no detectable binding
- binding to mature GDF-8 (mature GDF-8): does not bind
- release of mature myostatin, measured by luciferase expression (proMyostatin [1]): inhibited release of mature myostatin
- EC50 in proMyostatin activation assay, the two antibodies compared (proMyostatin [2]): similar
- EC50 in proMyostatin activation assay, the two antibodies compared (mouse proMyostatin): similar
- inhibition of mature myostatin signaling (mature myostatin): did not inhibit
- onset of significant target engagement in circulation (latent myostatin [6]): within four hours
- onset of significant target engagement in muscle (latent myostatin [6]): within two days
- target engagement at 56 days post-dosing (latent myostatin [6]): no longer observed
- target engagement sustained out to (latent myostatin [6]): 29 days post dose
- accumulation of latent myostatin evident by (latent myostatin [8]; serum): ≤ 8 days
Molecule: SRK-015: fully human monoclonal antibody optimized from SRK-015P; binds pro/latent myostatin and inhibits release of mature growth factor
- binding to GDF11 (GDF11): does not bind; also recorded: no detectable binding
- effect in protease activity assay with proGDF11 (proGDF11): no effect
- tolloid-mediated cleavage of latent myostatin (latent myostatin [3]): inhibited the second (tolloid-mediated) proteolysis step
- increase in muscle mass versus IgG control (healthy male mice): 17.5%
- muscle atrophy under dexamethasone ([4]; single 20 mg/kg dose, throughout the study): prevented muscle atrophy
- half-life [5]: ~487 h
- lean mass relative to IgG control (scid mice): significant increase in lean mass
- AUClast ([7]; 3 mg/kg weekly for 8 weeks): 60799 hr▪ng/ml
- Cmax ([7]; 3 mg/kg weekly for 8 weeks): 243 ng/mL
- Tmax ([7]; 3 mg/kg weekly for 8 weeks): 51 h
- T1/2 ([7]; 3 mg/kg weekly for 8 weeks): 12.4 h
- AUClast ([7]; 30 mg/kg weekly for 8 weeks): 1070638 hr▪ng/ml
- Cmax ([7]; 30 mg/kg weekly for 8 weeks): 2648 ng/mL
- Tmax ([7]; 30 mg/kg weekly for 8 weeks): 15 h
- T1/2 ([7]; 30 mg/kg weekly for 8 weeks): 22.2 h
- Biceps brachii weight increase relative to vehicle control (cynomolgus monkeys; [12]): 18%
- Gastrocnemius weight increase relative to vehicle control (cynomolgus monkeys; [12]): 21%
- Biceps brachii weight increase relative to vehicle control (cynomolgus monkeys; [13]): 25%
- Gastrocnemius weight increase relative to vehicle control (cynomolgus monkeys; [13]): 23%
- target engagement in serum (latent myostatin [8]): engaged latent myostatin at both doses tested

Molecule: CCN1CCN(c2ccc3cc(-c4cn5cc(C)nc(C)c5n4)c(=O)oc3c2)C[C@@H]1C [SMN-C2]
- blood brain barrier (BBB) crossing [9]: efficiently crossed the blood brain barrier
- SMN protein levels compared to vehicle [9]: increased SMN protein levels in both brain and muscle tissues

Molecule: CCc1nc(C)cn2nc(-c3cc(=O)n4cc(C5CCN(C)CC5)cc(C)c4n3)cc12 [RG7800]
- blood brain barrier (BBB) crossing [9]: efficiently crossed the blood brain barrier
- SMN protein levels compared to vehicle [9]: increased SMN protein levels in both brain and muscle tissues

Molecule: nusinersen
- treated patients able to sit unaided ([10]; Type I patients): five of 81
- patients reported to be non-responders ([10]; infantile-onset SMA (type I)): 60%
- treated patients with improvements in motor milestones (Hammersmith Infant Neurological Examination) ([10]; interim analysis, 0% placebo): 41%
- patients not attaining at least 3-point HFMSE improvement (Type II SMA patients; in vivo): 43%
- HFMSE score increase relative to placebo group (Type II SMA patients): 5.9 points
- HFMSE score increase relative to placebo group (Type II SMA patients; listed as Nusinersen): less than 6 points
- compound muscle action potential (CMAP) amplitudes (SMA patients): improvements

Molecule: CCN1CCC(c2cc(C)c3nc(-c4cc5c(C)nc(C)cn5n4)cc(=O)n3c2)CC1 [SMN-C3]
- blood brain barrier (BBB) crossing [9]: efficiently crossed the blood brain barrier
- SMN protein levels compared to vehicle [9]: increased SMN protein levels in both brain and muscle tissues

Molecule: C[C@@H]1C[C@H]2[C@@H]3CCC4=CC(=O)C=C[C@]4(C)[C@@]3(F)[C@@H](O)C[C@]2(C)[C@@]1(O)C(=O)CO [dexamethasone, reference compound]
- loss of muscle mass, IgG vehicle versus IgG Dex ([4]; chronic administration, by day 8): 16%

Molecule: CC1(C)CC(Oc2ccc(-c3ccc(-c4cn[nH]c4)cc3O)nn2)CC(C)(C)N1 [LMI070]
- preclinical toxicity findings [11]: injuries to the peripheral nerves and spinal cord, testes, and blood vessels in the kidney
